Test: Study KAR5585-101 Part 1 (SAD): plasma pharmacokinetics after a single oral dose of KAR5585, fasting and fed (incl. dose proportionality and food effect)
Details: for AUC / AUC(0-inf) / concentration at 12 h / Cmax / Vd/F / half-life / Tmax: human, plasma, po; for AUC: AUC0-tau; for AUC(0-inf): AUC0-∞; for Vd/F: Vz/F
[1] = 400 mg, 400 mg KAR5585 single oral, fasted, Cohort 3A, Mean
[2] = 400 mg, 400 mg KAR5585 single oral, fed, Cohort 3B, Geo. Mean
[3] = 400 mg, 400 mg KAR5585 single oral, fed, Cohort 3B, Mean
[4] = 400 mg, Geometric Mean, Cohort 3A (Fasting), 400 mg KAR5585 single oral dose, fasting
[5] = 400 mg, Geometric Mean, Cohort 3B (Fed), 400 mg KAR5585 single oral dose, fed
[6] = 400 mg, 400 mg KAR5585 single oral, fasted, Cohort 3A, Geo. Mean
[7] = 700 mg, 700 mg KAR5585 single oral, fasted, Cohort 4, Geo. Mean
[8] = 700 mg, 700 mg KAR5585 single oral, fasted, Cohort 4, Mean
[9] = 1200 mg, 1200 mg KAR5585 single oral, fasted, Cohort 5, Geo. Mean
[10] = 1200 mg, 1200 mg KAR5585 single oral, fasted, Cohort 5, Mean
[11] = 2000 mg, 2000 mg KAR5585 single oral, fasted, Cohort 6, Geo. Mean
[12] = 2000 mg, 2000 mg KAR5585 single oral, fasted, Cohort 6, Mean

Experimental: Food effect was to be evaluated in Part 1, Period 2. Part 2 was permitted to begin before Part 1 was completed and, in each part, the data from each dose Cohort were to be reviewed for safety before the next dose Cohort was enrolled.
Part 1 had 6 Cohorts of 12 subjects each (for a total of 72 subjects) and Part 2 had 4 Cohorts of 12 subjects each (for a total of 48 subjects). In Part 1, the 12 subjects in Cohort 3 (400 mg)were studied twice, once under fasting conditions (Period 1) and once under fed conditions (Period 2) for food-effect assessment.
Pharmacokinetic data were to be summarized descriptively.

Structure (SMILES): CCOC(=O)[C@@H]1CC2(CCN(c3cc(O[C@H](c4ccc(Cl)cc4-c4ccccc4)C(F)(F)F)nc(N)n3)CC2)CN1 [KAR5585, (S)-ethyl 8-(2-amino-6-((R)-1-(5-chloro-[1,1′-biphenyl]-2-yl)-2,2,2-trifluoroethoxy)pyrimidin-4-yl)-2,8-diazaspiro[4.5]decane-3-carboxylate]
- AUC [1]: 219 ng·h/mL
- AUC [2]: 854 ng·h/mL
- AUC [3]: 868 ng·h/mL
- AUC [4]: 176 ng·h/mL
- AUC [5]: 854 ng·h/mL
- AUC(0-inf) [6]: 288 ng·h/mL
- AUC(0-inf) [1]: 302 ng·h/mL
- AUC(0-inf) [2]: 903 ng·h/mL
- AUC(0-inf) [3]: 915 ng·h/mL
- concentration at 12 h (400 mg, C12, 400 mg KAR5585 single oral, fasted, Cohort 3A, Geo. Mean): 7.4 ng/mL
- concentration at 12 h (400 mg, C12, 400 mg KAR5585 single oral, fasted, Cohort 3A, Mean): 7.45 ng/mL
- concentration at 12 h (400 mg, C12, 400 mg KAR5585 single oral, fed, Cohort 3B, Geo. Mean): 19.7 ng/mL
- concentration at 12 h (400 mg, C12, 400 mg KAR5585 single oral, fed, Cohort 3B, Mean): 21 ng/mL
- Cmax [6]: 42 ng/mL
- Cmax [1]: 52.8 ng/mL
- Cmax [2]: 165 ng/mL
- Cmax [3]: 169 ng/mL
- Cmax [4]: 42 ng/mL
- Cmax [5]: 165 ng/mL
- Vd/F [6]: 8100 L
- Vd/F [1]: 8330 L
- Vd/F [2]: 2730 L
- Vd/F [3]: 2780 L
- half-life (400 mg, t1 (t½, apparent terminal half-life), 400 mg KAR5585 single oral, fasted, Cohort 3A, Geo. Mean): 4.04 h
- half-life (400 mg, t1 (t½, apparent terminal half-life), 400 mg KAR5585 single oral, fasted, Cohort 3A, Mean): 4.08 h
- half-life (400 mg, t1 (t½, apparent terminal half-life), 400 mg KAR5585 single oral, fed, Cohort 3B, Geo. Mean): 4.26 h
- half-life (400 mg, t1 (t½, apparent terminal half-life), 400 mg KAR5585 single oral, fed, Cohort 3B, Mean): 4.45 h
- Tmax (400 mg, tmax, 400 mg KAR5585 single oral, fasted, Cohort 3A, Median): 2.07 h
- Tmax (400 mg, tmax, 400 mg KAR5585 single oral, fed, Cohort 3B, Median): 3 h
- AUC [7]: 362 ng·h/mL
- AUC [8]: 386 ng·h/mL
- AUC(0-inf) [7]: 412 ng·h/mL
- AUC(0-inf) [8]: 436 ng·h/mL
- concentration at 12 h (700 mg, C12, 700 mg KAR5585 single oral, fasted, Cohort 4, Geo. Mean): 9.84 ng/mL
- concentration at 12 h (700 mg, C12, 700 mg KAR5585 single oral, fasted, Cohort 4, Mean): 10.7 ng/mL
- Cmax [7]: 95.2 ng/mL
- Cmax [8]: 99.4 ng/mL
- Vd/F [7]: 8390 L
- Vd/F [8]: 9120 L
- half-life (700 mg, t1 (t½, apparent terminal half-life), 700 mg KAR5585 single oral, fasted, Cohort 4, Geo. Mean): 3.42 h
- half-life (700 mg, t1 (t½, apparent terminal half-life), 700 mg KAR5585 single oral, fasted, Cohort 4, Mean): 3.46 h
- Tmax (700 mg, tmax, 700 mg KAR5585 single oral, fasted, Cohort 4, Median): 1.75 h
- AUC [9]: 296 ng·h/mL
- AUC [10]: 364 ng·h/mL
- AUC(0-inf) [9]: 406 ng·h/mL
- AUC(0-inf) [10]: 462 ng·h/mL
- concentration at 12 h (1200 mg, C12, 1200 mg KAR5585 single oral, fasted, Cohort 5, Geo. Mean): 11 ng/mL
- concentration at 12 h (1200 mg, C12, 1200 mg KAR5585 single oral, fasted, Cohort 5, Mean): 11.8 ng/mL
- Cmax [9]: 68.1 ng/mL
- Cmax [10]: 83 ng/mL
- Vd/F [9]: 14500 L
- Vd/F [10]: 16900 L
- half-life (1200 mg, t1 (t½, apparent terminal half-life), 1200 mg KAR5585 single oral, fasted, Cohort 5, Geo. Mean): 3.4 h
- half-life (1200 mg, t1 (t½, apparent terminal half-life), 1200 mg KAR5585 single oral, fasted, Cohort 5, Mean): 3.58 h
- Tmax (1200 mg, tmax, 1200 mg KAR5585 single oral, fasted, Cohort 5, Median): 2 h
- AUC [11]: 638 ng·h/mL
- AUC [12]: 773 ng·h/mL
- AUC(0-inf) [11]: 667 ng·h/mL
- AUC(0-inf) [12]: 778 ng·h/mL
- concentration at 12 h (2000 mg, C12, 2000 mg KAR5585 single oral, fasted, Cohort 6, Geo. Mean): 26.2 ng/mL
- concentration at 12 h (2000 mg, C12, 2000 mg KAR5585 single oral, fasted, Cohort 6, Mean): 37.4 ng/mL
- Cmax [11]: 95.1 ng/mL
- Cmax [12]: 104 ng/mL
- Vd/F [11]: 20600 L
- Vd/F [12]: 25100 L
- half-life (2000 mg, t1 (t½, apparent terminal half-life), 2000 mg KAR5585 single oral, fasted, Cohort 6, Geo. Mean): 4.76 h
- half-life (2000 mg, t1 (t½, apparent terminal half-life), 2000 mg KAR5585 single oral, fasted, Cohort 6, Mean): 4.84 h
- Tmax (2000 mg, tmax, 2000 mg KAR5585 single oral, fasted, Cohort 6, Median): 2 h
- Vd/F (range across dose levels, single oral KAR5585): 5680 to 25100 L
- half-life (mean apparent elimination half-life, range across dose levels, single oral KAR5585 100-2000 mg): 1.89 to 4.84 h
- Tmax (median tmax, range across cohorts, single oral 100-2000 mg KAR5585, fasting cohorts): 1.5 to 3 h
- time concentrations remained above the LLOQ (single 100 mg KAR5585, fasting): up to 4 hours
- time concentrations remained above the LLOQ (single 200 mg KAR5585, fasting): up to 12 hours
- time concentrations remained above the LLOQ (single 700 mg KAR5585, fasting): up to 12 hours
- time concentrations remained above the LLOQ (single 1200 mg KAR5585, fasting): up to 12 hours
- dose proportionality of AUC0-inf and Cmax (power model, 95% CI of slope) (single dose range 100 to 2000 mg KAR5585, fasting): dose proportionality was not concluded

— patent publication US20240041877A1, “DOSAGE REGIME AND METHOD FOR TREATING PULMONARY ARTERIAL HYPERTENSION” (Altavant Sciences GmbH, priority 2019, published 2024)
